Data: the NIST ThermoML archive (doi:10.1016/j.jct.2013.04.021)

Test: xn = mol fraction of the nth substance listed
Settings: 101 kPa, Liquid; for mass density: Vibrating tube method; for speed of sound: fixed-path interferometer; for viscosity: Capillary tube (Ostwald / Ubbelohde) method

CCCCOCCO [2-butoxyethan-1-ol] + CCCCCCCCO
Settings	mass density, 303.15 K [kg/m3]	mass density, 308.15 K [kg/m3]	mass density, 313.15 K [kg/m3]	speed of sound, 303.15 K [m/s]	speed of sound, 308.15 K [m/s]	speed of sound, 313.15 K [m/s]	viscosity, 308.15 K [mPa·s]
x1 = 0.053	–	818.004	814.437	1328.1	1311.3	1294.9	5.048
x1 = 0.1049	–	–	–	–	–	–	4.78
x1 = 0.105	–	821.021	817.45	1325.4	1308.8	1292.3	–
x1 = 0.167	–	824.71	821.134	1321.7	1305.5	1289.2	4.442
x1 = 0.2004	–	826.746	823.153	1319.7	1303.3	1287.3	4.298
x1 = 0.2561	–	830.229	826.589	1316.7	1300.5	1284.5	4.049
x1 = 0.3039	–	833.292	829.618	1314.2	1298.2	1282.2	3.878
x1 = 0.4046	–	839.998	836.231	1309.1	1293.1	1277.4	3.519
x1 = 0.5013	850.582	846.771	842.934	1304.5	1288.7	1273	3.229
x1 = 0.6004	857.95	854.07	850.161	1300.3	1284.5	1268.8	2.965
x1 = 0.7009	865.804	861.87	857.881	1296.5	1280.5	1264.7	2.753
x1 = 0.8027	874.181	870.213	866.131	1293.3	1277	1261.1	2.545
x1 = 0.852	878.409	874.403	870.301	1292	1275.4	1259.5	2.457
x1 = 0.9007	882.718	878.687	874.538	1290.8	1274.1	1258	2.369
x1 = 0.9512	887.379	883.226	879.067	1289.8	1273	1256.6	2.281
